# The source made the active and inactive calls.
# Key:
# [1] = inhibitors of intracellular T. cruzi replication, confirmation, NIH3T3 host cells, beta-gal luminescence (AID 2044); type: functional, cell-based;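 note: intracellular parasites grown in NIH/3T3 mouse fibroblasts as host cells; luminescent beta-galactosidase reporter signal from transgenic T. cruzi replicating inside host cells; inhibitors lower the luminescence signal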
# [2] = cytotoxicity toward NIH3T3 fibroblasts, dose response, counter-screen, cell-based, ATP luminescence, mouse fibroblasts (AID 2010); type: functional;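 note: cells exposed to compound for about 90 hours before reading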
# [3] = HeLa cell cytotoxicity, dose response, cytotoxicity control for MgcRacGAP inhibitor project (AID 624300); type: functional
# [4] = target: T1, Rac GTPase-activating protein 1 (Homo sapiens, UniProt Q9H0H5); assay: MgcRacGAP GTPase-activating activity inhibitors, confirmation, biochemical, ADP Hunter fluorescence, primary and confirmatory (AID 624330); type: functional
# T1 sequence (Q9H0H5 whole entry): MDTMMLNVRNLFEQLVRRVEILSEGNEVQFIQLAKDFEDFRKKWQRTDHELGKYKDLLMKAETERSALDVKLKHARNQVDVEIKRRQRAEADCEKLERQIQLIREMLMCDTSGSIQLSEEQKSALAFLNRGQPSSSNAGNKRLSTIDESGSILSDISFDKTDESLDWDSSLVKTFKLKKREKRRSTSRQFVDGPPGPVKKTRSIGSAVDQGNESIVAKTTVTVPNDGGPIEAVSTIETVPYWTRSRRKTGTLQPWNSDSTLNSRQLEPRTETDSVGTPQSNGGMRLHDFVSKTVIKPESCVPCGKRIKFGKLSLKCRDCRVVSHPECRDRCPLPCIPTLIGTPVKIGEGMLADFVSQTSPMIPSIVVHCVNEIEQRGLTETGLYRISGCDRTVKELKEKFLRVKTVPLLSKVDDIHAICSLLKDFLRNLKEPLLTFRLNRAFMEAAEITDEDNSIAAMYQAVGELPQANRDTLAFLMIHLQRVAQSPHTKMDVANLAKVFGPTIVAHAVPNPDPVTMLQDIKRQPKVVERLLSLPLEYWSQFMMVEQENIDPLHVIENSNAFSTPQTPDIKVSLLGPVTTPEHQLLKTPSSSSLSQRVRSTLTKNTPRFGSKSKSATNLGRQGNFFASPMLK
# [5] = target: T2, Sentrin-specific protease 8 (Homo sapiens, UniProt Q96LD8); type: functional
# T2 sequence (Q96LD8 whole entry): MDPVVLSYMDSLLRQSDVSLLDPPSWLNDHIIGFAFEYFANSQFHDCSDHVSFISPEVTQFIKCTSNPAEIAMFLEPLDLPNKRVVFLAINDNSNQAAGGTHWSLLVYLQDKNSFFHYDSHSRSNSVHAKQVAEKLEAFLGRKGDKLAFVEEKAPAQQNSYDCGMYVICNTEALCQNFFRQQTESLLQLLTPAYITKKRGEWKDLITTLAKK
# [6] = target: T2, Sentrin-specific protease 8; type: functional; remark: listed apart in the source
# [7] = Shn3 3'UTR reporter inhibitors, dose response, cell-based, Clone20 osteoblasts, firefly luciferase, cherry-picked (AID 624132); type: functional;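 note: firefly luciferase luminescence from reporter carrying the Shn3 3'UTR in osteoblasts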
# [8] = HepG2 cell cytotoxicity, dose response, cytotoxicity control for Shn3 inhibitor project, CellTiter-Glo, cherry-picked (AID 624134); type: functional, cell-based
# [9] = control 3'UTR Renilla luciferase suppression, dose response, counter-screen for Shn3 inhibitor project, cell-based, Clone20-Shn3RL, cherry-picked (AID 624133); type: functional
# [10] = inhibitors of HIV Env-driven cell fusion, dose response, cherry-pick (AID 652057); type: functional, cell-based
# [11] = CEM21 lymphoblast cell cytotoxicity, dose response, cytotoxicity control for viral fusion inhibitor project, CellTiter-Glo luminescence, cherry-picked (AID 652042); type: functional, cell-based;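 note: potency for signal decrease meaning cytotoxicity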
# [12] = ZM109 Env clade C HIV-1 fusion inhibitors, dose response, HeLa effector, CEM target cells, luciferase, cherry-pick (AID 652058); type: functional, cell-based
# [13] = off-target signal loss in HeLa-CEM21 co-culture – HeLa F-luc CTL cells, cherry-picked, counter-screen for HIV-1 Env fusion inhibitor project, dose response (AID 652040); type: functional, cell-based;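 note: potency for signal decrease marking cytotoxic or nonspecific inhibition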
# [14] = inhibitors of clade B AD8 Env fusion, dose response, cell-based, cherry-pick (AID 652062); type: functional;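 note: luciferase signal from cell-cell fusion driven by HIV-1 clade B AD8 Env; potency is for inhibitors of fusion seen as a drop in luminescence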
# Cytochrome P450 1A2 = target: T3, Cytochrome P450 1A2 (Homo sapiens, UniProt P05177);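 note: PubChem cytochrome P450 panel assay, CYP1A2 panel member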
# T3 sequence (P05177 whole entry): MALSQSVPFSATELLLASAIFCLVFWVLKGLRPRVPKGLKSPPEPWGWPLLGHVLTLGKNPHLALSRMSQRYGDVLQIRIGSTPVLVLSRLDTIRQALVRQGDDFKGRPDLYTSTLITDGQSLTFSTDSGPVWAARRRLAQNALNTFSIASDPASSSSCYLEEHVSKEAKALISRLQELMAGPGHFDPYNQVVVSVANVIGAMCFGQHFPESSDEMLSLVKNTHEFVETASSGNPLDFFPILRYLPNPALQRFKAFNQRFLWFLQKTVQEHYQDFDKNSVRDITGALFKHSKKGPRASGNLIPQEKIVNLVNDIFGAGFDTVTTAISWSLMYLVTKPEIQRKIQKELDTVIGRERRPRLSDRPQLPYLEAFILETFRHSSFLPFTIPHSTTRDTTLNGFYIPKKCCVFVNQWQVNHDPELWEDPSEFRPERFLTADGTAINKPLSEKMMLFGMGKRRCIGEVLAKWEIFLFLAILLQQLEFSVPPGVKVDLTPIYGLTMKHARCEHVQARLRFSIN
# HEK293 [15] = assay: cells; conditions: Homo sapiens
# HEK293 [16] = assay: cells; conditions: Homo sapiens; remark: listed apart in the source
# [17] = system: Streptococcus sp. 'group A'; assay: growth inhibition of control SK(-) GAS strain, dose response, counter-screen for streptokinase expression inhibitor project, luminescence, kanamycin, BacTiterGlo, confirmation (AID 1900); type: functional, organism-based
# Streptokinase A = target: T4, Streptokinase A (Streptococcus pyogenes serotype M1, UniProt P10520); assay: S. pyogenes streptokinase expression inhibitors, potency, dose response, plasminogen activation absorbance, OD405 (AID 1914); type: functional, Streptococcus pyogenes M1 GAS;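 note: secreted streptokinase activity via plasminogen activation per viability signal from cell pellet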
# T4 sequence (P10520 whole entry): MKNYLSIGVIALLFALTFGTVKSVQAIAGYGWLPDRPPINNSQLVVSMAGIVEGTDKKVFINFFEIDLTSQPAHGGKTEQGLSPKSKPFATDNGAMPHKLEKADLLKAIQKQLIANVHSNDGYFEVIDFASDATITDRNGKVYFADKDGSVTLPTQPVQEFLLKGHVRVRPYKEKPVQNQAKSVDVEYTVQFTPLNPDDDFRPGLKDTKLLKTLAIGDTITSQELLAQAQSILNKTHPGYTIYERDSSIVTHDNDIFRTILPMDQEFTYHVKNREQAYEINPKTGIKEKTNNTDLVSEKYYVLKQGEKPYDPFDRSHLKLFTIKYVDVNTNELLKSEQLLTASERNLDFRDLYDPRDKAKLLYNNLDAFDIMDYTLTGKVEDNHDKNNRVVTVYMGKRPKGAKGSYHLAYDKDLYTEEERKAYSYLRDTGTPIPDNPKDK
# Streptococcus = assay: Group A Streptococcus viability loss, dose response, counter-screen for streptokinase expression inhibitor project, luminescence, BacTiterGlo (AID 1915); type: functional, organism-based;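 note: potency for reduction of bacterial viability or growth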
# [18] = target: T5, Small ubiquitin-related modifier 1 (Homo sapiens, UniProt P63165); assay: inhibitors of SUMO1 peptide binding, dose response, biochemical, fluorescence polarization, uHTS hits (AID 624382); type: functional; conditions: read-out: IC50_Mean
# [19] = target: T5, Small ubiquitin-related modifier 1; assay: inhibitors of SUMO1 partner interactions, dose response, biochemical, FRET (AID 624383); type: functional; conditions: read-out: IC50_Mean
# [20] = target: T6, Microphthalmia-associated transcription factor (Homo sapiens, UniProt O75030); assay: TRPM1 promoter luciferase signal decrease, dose response, MITF inhibitor project, cell-based, SK-MEL-5, cherry-picked, set 3 (AID 493073); type: functional
# T6 sequence (O75030 whole entry): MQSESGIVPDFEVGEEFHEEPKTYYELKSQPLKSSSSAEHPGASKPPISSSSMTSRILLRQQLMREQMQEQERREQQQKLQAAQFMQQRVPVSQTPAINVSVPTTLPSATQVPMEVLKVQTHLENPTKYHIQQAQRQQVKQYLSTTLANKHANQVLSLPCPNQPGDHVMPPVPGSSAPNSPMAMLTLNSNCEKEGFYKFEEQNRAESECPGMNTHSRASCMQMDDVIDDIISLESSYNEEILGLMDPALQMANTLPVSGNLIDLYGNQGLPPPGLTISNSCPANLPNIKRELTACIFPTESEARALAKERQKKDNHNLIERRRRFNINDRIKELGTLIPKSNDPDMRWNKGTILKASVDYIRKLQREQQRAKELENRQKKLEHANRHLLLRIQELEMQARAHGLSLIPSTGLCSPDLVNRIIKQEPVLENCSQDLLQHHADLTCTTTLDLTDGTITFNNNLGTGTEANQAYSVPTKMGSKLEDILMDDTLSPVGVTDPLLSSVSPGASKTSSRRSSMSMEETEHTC
# [21] = target: T7, Long-chain-fatty-acid--AMP ligase FadD28 (Mycobacterium tuberculosis, UniProt P9WQ59); assay: Fluorescence polarization aasay to screen for inhibitors that compete for the binding of FadD28 to a bisubstrate Measured in Biochemical System Using Plate Reader - 2147-01_Inhibitor_Dose_CherryPick_Activity.; type: functional, Mycobacterium tuberculosis H37Rv
# T7 sequence (P9WQ59 whole entry): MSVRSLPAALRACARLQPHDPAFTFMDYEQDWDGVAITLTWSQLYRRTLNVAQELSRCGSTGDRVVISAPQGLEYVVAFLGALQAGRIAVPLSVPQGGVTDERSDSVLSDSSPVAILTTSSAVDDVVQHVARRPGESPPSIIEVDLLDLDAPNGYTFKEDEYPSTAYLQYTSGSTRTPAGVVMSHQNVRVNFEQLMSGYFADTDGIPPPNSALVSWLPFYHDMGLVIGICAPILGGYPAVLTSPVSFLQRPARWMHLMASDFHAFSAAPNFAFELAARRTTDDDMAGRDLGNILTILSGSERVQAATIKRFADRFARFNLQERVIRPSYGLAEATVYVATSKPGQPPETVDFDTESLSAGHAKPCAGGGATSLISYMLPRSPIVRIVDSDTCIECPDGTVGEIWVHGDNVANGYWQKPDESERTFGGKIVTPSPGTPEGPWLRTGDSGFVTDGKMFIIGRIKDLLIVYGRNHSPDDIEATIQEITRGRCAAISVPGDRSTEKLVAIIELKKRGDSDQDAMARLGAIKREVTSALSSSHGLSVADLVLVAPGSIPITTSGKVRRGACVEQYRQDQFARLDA
# T5 sequence (P63165 whole entry): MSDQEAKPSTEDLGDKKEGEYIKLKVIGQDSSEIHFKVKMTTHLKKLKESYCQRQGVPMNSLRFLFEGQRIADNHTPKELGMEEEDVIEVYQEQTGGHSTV
smiles,measurement,setting,value
COc1ccc(Br)cc1CNCCc1cccc(Cl)c1,EC50,[1],1.12 µM (active)
same,EC50,[2],> 60 µM (not active)
same,CC50,[3],100 µM (active)
same,IC50,[4],130 µM (active)
O=C(CCCn1c(=O)oc2ccccc21)N1CCc2ccccc2C1,IC50,[5],> 100 µM (inactive)
same,IC50,[6],8 µM (active)
O=C(Nc1ccc(Oc2ccccc2)cc1)C1CCN(c2c3c(nc4ncnn24)CCC3)CC1,AC50,[7],5.64 µM (active)
same,AC50,[8],7.3 µM (active)
same,AC50,[9],10.5 µM (active)
same,AC50,[10],3.83 µM (active)
same,AC50,[11],42.7 µM (active)
same,AC50,[12],9.59 µM (active)
same,AC50,[13],> 32 µM (inactive)
same,AC50,[14],4.29 µM (active)
same,AC50,Cytochrome P450 1A2,15.8 µM (inconclusive)
CCC(C)(C)NC(=O)C(NS(=O)(=O)c1cccs1)c1ccccc1 (configuration not stated),AC50,[10],4.25 µM (active)
same,AC50,[12],4.71 µM (active)
same,AC50,[13],4.24 µM (active)
same,AC50,[14],5.84 µM (active)
same,EC50,HEK293 [15],> 59.6 µM (inactive)
same,EC50,HEK293 [16],> 59.6 µM (inactive)
Cc1cccc(NC(=O)c2cc3n(n2)C(C(F)(F)F)CC(c2ccc4c(c2)OCO4)N3)c1 (configuration not stated),EC50,[17],12.9 µM (active)
same,EC50,Streptokinase A,28.7 µM (active)
same,EC50,Streptococcus,139 µM (active)
same,AC50,[10],7.49 µM (active)
same,AC50,[11],61 µM (active)
same,AC50,[12],7.75 µM (active)
same,AC50,[13],4.41 µM (active)
same,AC50,[14],17 µM (active)
NNc1ccc([N+](=O)[O-])c2n[nH]c(O)c12,IC50,[18],> 66.6 µM (inactive)
same,IC50,[19],5.04 µM (active)
same,IC50,[4],76.8 µM (active)
O=C(O)c1cccc(N/N=C/c2ccc(OC(F)(F)F)cc2)c1,AC50,[20],5.95 µM (active)
same,AC50,[21],39.7 µM (active)
COc1cc(/C=N/NC(=O)CN(Cc2ccccc2)S(=O)(=O)c2ccc3c(c2)OCCO3)ccc1O,AC50,[21],> 100 µM (inactive)
same,CC50,[3],100 µM (active)
same,IC50,[4],74.6 µM (active)

# Source: ChEMBL document CHEMBL1201862, “PubChem BioAssay data set” (2004)
